Measured values from ChEMBL document CHEMBL4130624, “Optimization of 1,4-Oxazine β-Secretase 1 (BACE1) Inhibitors Toward a Clinical Candidate” (J Med Chem, 2018).

Tests used:
[1] = AUC (0 to 24 hrs) in male Beagle dog at 70 mg/kg, po measured after 1 month repeated dosing by LC-MS/MS analysis; conditions: in vivo
Canis familiaris [2] = assay: Toxicity in beagle dog assessed as induction of ataxia at 70 to 250 mg/kg/day, po qd for 1 week; assay type: organism-based, Canis lupus familiaris; conditions: in vivo, 168 h
Canis familiaris [3] = assay: Toxicity in Beagle dog assessed as drug tolerability at 0.63 to 20 mg/kg, po qd for 6 days; assay type: organism-based, Canis lupus familiaris; conditions: in vivo, 144 h
[4] = Volume of distribution at steady state in Sprague-Dawley rat at 2.5 mg/kg, iv administered as bolus dose by LC-MS/MS analysis; assay type: ADME, organism-based; conditions: in vivo, read-out: Vdss
Rattus norvegicus [5] = assay: Systemic clearance in Sprague-Dawley rat at 2.5 mg/kg, iv administered as bolus dose by LC-MS/MS analysis relative to liver blood flow; assay type: ADME, organism-based; conditions: in vivo
Rattus norvegicus [6] = assay: Toxicity in Sprague-Dawley rat assessed as effect on food consumption at 225 mg/kg/day, po administered via gavage for 1 month; assay type: organism-based; conditions: in vivo
Cytochrome P450 2C19 = Cytochrome P450 2C19 (Homo sapiens, UniProt P33261); assay: Reversible inhibition of recombinant human CYP2C19 by fluorescence-based assay; assay type: ADME
Chain of Cytochrome P450 2C19 (P33261 whole entry): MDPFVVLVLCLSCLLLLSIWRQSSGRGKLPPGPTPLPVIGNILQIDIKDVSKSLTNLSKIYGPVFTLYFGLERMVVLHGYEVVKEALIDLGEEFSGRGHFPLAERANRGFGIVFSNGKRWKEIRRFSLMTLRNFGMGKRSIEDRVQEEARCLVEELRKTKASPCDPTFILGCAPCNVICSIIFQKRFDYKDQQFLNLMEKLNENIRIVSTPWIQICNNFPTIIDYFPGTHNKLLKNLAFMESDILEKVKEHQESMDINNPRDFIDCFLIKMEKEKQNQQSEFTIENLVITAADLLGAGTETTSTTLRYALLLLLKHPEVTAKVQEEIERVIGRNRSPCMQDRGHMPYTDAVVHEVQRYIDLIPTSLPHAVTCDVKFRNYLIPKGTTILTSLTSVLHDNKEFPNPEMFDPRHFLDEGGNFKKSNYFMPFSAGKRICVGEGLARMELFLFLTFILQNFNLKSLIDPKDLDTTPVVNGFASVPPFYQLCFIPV

In the case of C[C@]1(c2cc(NC(=O)c3ccc(C#N)cn3)ccc2F)N=C(N)CO[C@H]1C(F)(F)F, the AUC at 24 h [1] is reported as 26300 ng·h/mL, the Activity (Canis familiaris [2]) is reported as “Toxic” and the Activity (Canis familiaris [3]) is reported as “Non-Toxic”. For the same compound, the Vd [4] was 11 L/kg, the CL (Rattus norvegicus [5]) was 67% and the Activity (Rattus norvegicus [6]) was “Non-Toxic”. It also gave an IC50 (Cytochrome P450 2C19) greater than 30 µM.
